These results are taken from PubChem BioAssay (NCI).

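48-hour exposure; five concentrations; linearly interpolated endpoints. At the TGI there is no net growth.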

Among the test systems are HL-60(TB) leukemia; SK-MEL-5 melanoma; SK-MEL-2 melanoma; SNB-19 CNS; UACC-62 melanoma; SK-OV-3 ovarian; SF-295 CNS; NCI-H226 lung; HCT-116 colon; MDA-MB-231 breast; 786-0 renal; SK-MEL-28 melanoma; LOX IMVI melanoma; K-562 leukemia; A498 renal; ACHN renal; OVCAR-8 ovarian; NCI/ADR-RES ovarian; A549 NSCLC; SN12C renal.
Assay in all cases: NCI anticancer screen, dose series, 48 h

With `CCCCCCCCCCCCCCCCCCNc1ccn(C2OC(CO)C(OP(=O)(O)OCC(O)COP(=O)(O)OCC3OC(n4cc(F)c(NCCCCCCCCCCCCCCCCCC)nc4=O)CC3O)C2O)c(=O)n1` (stereo not given), the TGI in the test with HL-60(TB) leukemia, in the test on SK-MEL-5 melanoma, in the test with SK-MEL-2 melanoma, in the test on SNB-19 CNS, in the test on UACC-62 melanoma and in the test on SK-OV-3 ovarian was above 50 µM throughout. The TGI in the test with SF-295 CNS, in the test with NCI-H226 lung, in the test on HCT-116 colon, in the test on MDA-MB-231 breast, in the test with 786-0 renal and with SK-MEL-28 melanoma was above 50 µM each time. Also, the TGI in the test with LOX IMVI melanoma, with K-562 leukemia, in the test with A498 renal, with ACHN renal, in the test with OVCAR-8 ovarian and in the test with NCI/ADR-RES ovarian was above 50 µM in each case. The TGI in the test on A549 NSCLC and with SN12C renal was above 50 µM in each case.

Regarding `CCOC(=O)CC[C@H](NC(=O)N[C@H](C)c1ccccc1)C(=O)OCC`, the TGI with HL-60(TB) leukemia is above 100 µM; in the test on SK-MEL-5 melanoma, above 100 µM; in the test with SK-MEL-2 melanoma it was 52.8 µM; in the test with SNB-19 CNS, above 100 µM; in the test with UACC-62 melanoma, 34.8 µM; with SK-OV-3 ovarian, above 100 µM. The TGI with SF-295 CNS is above 100 µM; with NCI-H226 lung, above 100 µM; in the test on HCT-116 colon, above 100 µM; in the test with MDA-MB-231 breast it was above 100 µM; with 786-0 renal it was above 100 µM; in the test on SK-MEL-28 melanoma, 43.8 µM. Moreover, the TGI in the test on LOX IMVI melanoma is above 100 µM; with K-562 leukemia it was above 100 µM; in the test on A498 renal, above 100 µM; in the test on ACHN renal it was above 100 µM; in the test with OVCAR-8 ovarian, above 100 µM; in the test with NCI/ADR-RES ovarian it was 75.9 µM. For the same compound, the TGI in the test on A549 NSCLC and in the test with SN12C renal was above 100 µM in each case.

Take `C=CCC1(Sc2ccccn2)Sc2ccc3ccccc3c2-c2c(ccc3ccccc23)S1`: the TGI in the test with HL-60(TB) leukemia, in the test with SK-MEL-5 melanoma, in the test on SK-MEL-2 melanoma, in the test with SNB-19 CNS, in the test with UACC-62 melanoma and in the test on SK-OV-3 ovarian was above 100 µM each time. The TGI in the test on SF-295 CNS, in the test with NCI-H226 lung, with HCT-116 colon, in the test on MDA-MB-231 breast, in the test with 786-0 renal and with SK-MEL-28 melanoma was above 100 µM each time. Further, the TGI in the test on LOX IMVI melanoma, in the test with K-562 leukemia, in the test with A498 renal, in the test on ACHN renal, in the test on OVCAR-8 ovarian and in the test on NCI/ADR-RES ovarian was above 100 µM throughout. For the same compound, the TGI in the test with A549 NSCLC and in the test with SN12C renal was above 100 µM throughout.

Take `COc1ccc2c(C)c(Oc3c(Cl)c(Cl)c(O)c(C#N)c3C#N)oc2c1`: the TGI in the test with HL-60(TB) leukemia, with SK-MEL-5 melanoma, with SK-MEL-2 melanoma, with SNB-19 CNS, in the test on UACC-62 melanoma and in the test with SK-OV-3 ovarian was above 100 µM each time. Further, the TGI in the test with SF-295 CNS, in the test with NCI-H226 lung, in the test with HCT-116 colon, in the test on MDA-MB-231 breast, with 786-0 renal and in the test on SK-MEL-28 melanoma was above 100 µM each time. Also, the TGI with LOX IMVI melanoma, in the test with K-562 leukemia, with A498 renal, in the test with ACHN renal, with OVCAR-8 ovarian and in the test with NCI/ADR-RES ovarian was above 100 µM throughout. For the same compound, the TGI with A549 NSCLC and in the test with SN12C renal was above 100 µM in each case.

Turning to `O=C(Oc1c(Cl)cc(C2(c3cc(Cl)c(OC(=O)c4ccccc4)c(Cl)c3)CCCCC2)cc1Cl)c1ccccc1`, the TGI with HL-60(TB) leukemia was found to be 23.5 µM; in the test on SK-MEL-5 melanoma, 22.9 µM; with SK-MEL-2 melanoma, 23.9 µM; with SNB-19 CNS it was 35.4 µM; with UACC-62 melanoma, 22.5 µM; with SK-OV-3 ovarian, 31.2 µM. For the same compound, the TGI in the test with SF-295 CNS worked out at 28.6 µM; in the test with NCI-H226 lung, 42.5 µM; in the test on HCT-116 colon it was 25.9 µM; in the test on MDA-MB-231 breast it was 27.3 µM; in the test on 786-0 renal, 27.5 µM; with SK-MEL-28 melanoma, 29.3 µM. Also, the TGI came out at 29.1 µM with LOX IMVI melanoma; 31 µM in the test on K-562 leukemia; 24.1 µM with A498 renal; 17.6 µM with ACHN renal; 34.1 µM in the test with OVCAR-8 ovarian; 27.1 µM in the test with NCI/ADR-RES ovarian. In addition, the TGI in the test on A549 NSCLC is 37.1 µM; with SN12C renal it was 28.2 µM.

`CCOC(=O)Cc1nnc2n(-c3ccccc3)c(=O)c3ccccc3n12`: the TGI in the test on HL-60(TB) leukemia, with SK-MEL-5 melanoma, in the test on SK-MEL-2 melanoma, in the test on SNB-19 CNS, with UACC-62 melanoma and in the test with SK-OV-3 ovarian was above 100 µM in each case. In addition, the TGI with SF-295 CNS, with NCI-H226 lung, in the test with HCT-116 colon, in the test on MDA-MB-231 breast, in the test on 786-0 renal and in the test on SK-MEL-28 melanoma was above 100 µM throughout. Besides, the TGI with LOX IMVI melanoma, in the test on K-562 leukemia, in the test on A498 renal, in the test with ACHN renal, with OVCAR-8 ovarian and in the test on NCI/ADR-RES ovarian was above 100 µM each time. The TGI with A549 NSCLC and with SN12C renal was above 100 µM throughout.

In the case of `N#CC(C#N)=C/C=C/c1c(Cl)cccc1Cl`, the TGI in the test with HL-60(TB) leukemia is 4.04 µM; with SK-MEL-5 melanoma, 3.28 µM; in the test with SK-MEL-2 melanoma, 3.47 µM; with SNB-19 CNS, above 10 µM; with UACC-62 melanoma, 2.91 µM; in the test on SK-OV-3 ovarian, 5.64 µM. Further, the TGI in the test on SF-295 CNS came to 4.38 µM; in the test with NCI-H226 lung, 7.05 µM; in the test with HCT-116 colon it was 2.62 µM; with MDA-MB-231 breast, 3.52 µM; with 786-0 renal, 3.35 µM; in the test with SK-MEL-28 melanoma it was 3.05 µM. Besides, the TGI worked out at 3.36 µM in the test on LOX IMVI melanoma; 8.56 µM in the test on K-562 leukemia; 6.49 µM in the test on A498 renal; 3.19 µM with ACHN renal; 3.48 µM in the test on OVCAR-8 ovarian; 4.98 µM with NCI/ADR-RES ovarian. The TGI in the test on A549 NSCLC worked out at 7.22 µM; in the test with SN12C renal it was 3.9 µM.
